The values that follow come from ChEMBL document CHEMBL4706648, “Antitubercular 2-Pyrazolylpyrimidinones: Structure-Activity Relationship and Mode-of-Action Studies” (J Med Chem, 2021).

The structures appear in SMILES notation. ≈ marks a conversion by molar mass, not a printed value. Calls of active or inactive are those of the source. The calls are words filed in the database; no cut-off is given here.

Series [1] can be described thus: Kinetic solubility of compound at 200 uM at pH 7.4 measured after 20 hrs by HPLC-DAD analysis. The following applies: buffer, pH 7.4, 20 h. Format: physicochemical.
Series [2] can be described thus: Metabolic stability in rat liver microsomes assessed as parent compound remaining after 30 mins. It counts as ADME, Microsome. The following applies: 0.5 h. A general note: Microsomes from liver hold many membrane-bound enzymes, among them those of drug oxidation.
The test system of series [3] is CHO. The series is described as follows: Cytotoxicity against CHO cells assessed as reduction in cell viability by MTT assay. Format: cell-based. The following applies: Cricetulus griseus. A general note: Formazan colour is commonly taken as a measure of viable cells.
Series [4] deals with Mycobacterium tuberculosis. Format: functional. To be noted: H37Rv, 168 h, time 7 day.
Series [5] can be described thus: Aqueous solubility of compound at pH 7.4. It counts as physicochemical.
Series [6] is described as follows: Metabolic stability in human liver microsomes assessed as parent compound remaining after 30 mins. Format: ADME, Microsome. To be noted: 0.5 h.
Series [7] is described as follows: Metabolic stability in mouse liver microsomes assessed as parent compound remaining after 30 mins. To be noted: 0.5 h. It counts as ADME, Microsome.
Series [8] in a line: Protein binding in human plasma assessed as unbound fraction at 5 uM incubated for 1 hr at 37 degreeC and measured after 4 hrs by ultracentrifugation based LC-MS/MS analysis. It counts as ADME, cell-free. The following applies: 5 h.
Series [9] concerns Vero. The series is described as follows: Cytotoxicity against African green monkey Vero cells assessed as reduction in cell viability by MTT assay. It counts as cell-based. The following applies: Chlorocebus sabaeus.
Series [10] concerns Mycobacterium tuberculosis. The series is described as follows: Antimycobacterial activity against mmpL3 gene silenced Mycobacterium tuberculosis H37Rv assessed as inhibition of bacterial growth grown under middlebrook 7H9 medium incubated for 7 days by alamar blue broth microdilution method. Format: functional, organism-based. The following applies: time 7.0 day. (In general: Resazurin is reduced to fluorescent resorufin, in cell work by metabolically active cells.)

Series [11] concerns Mycobacterium tuberculosis. The series is described as follows: Antimycobacterial activity against wild-type Mycobacterium tuberculosis H37Rv assessed as inhibition of bacterial growth grown under middlebrook 7H9 medium incubated for 7 days by alamar blue broth microdilution method. Format: functional. To be noted: 168 h, time 7 day.

The compound `Cc1cc(NC2CCOCC2)n(-c2nc(C(F)(F)F)cc(=O)[nH]2)n1` returned a Kinetic_solubility in [1] of 50 µM. In addition, the Stabilty in [2] is recorded as over 99%; in [6], over 99%; in [7] it was 93%. Also, in [3], the IC50 turned out to be 18 µM. This compound gave an MIC in series [4] of 1.56 µM (≈ 0.536 µg/mL). This compound also yielded a solubility in series [5] (buffer) of 50 µM (≈ 17.2 µg/mL). Moreover, in series [8], the Fu is 0.014.
As for `Cc1cc(Nc2ccc(C#N)cc2)n(-c2nc(C(F)(F)F)cc(=O)[nH]2)n1`, in series [3], the IC50 came out at 20 µM. This compound also registered an MIC in series [4] of 9.4 µM (≈ 3.39 µg/mL). The solubility in [5] (buffer) came to 75 µM (≈ 27 µg/mL).
In the same order, the values of `Cc1nc(C)n(-c2nc(-c3ccccc3)cc(=O)[nH]2)n1` are over 50 µM, over 125 µM and 130 µM (≈ 34.7 µg/mL).
In the same order, the values of `Cc1cc(C)n(-c2cc(-c3ccccc3)nc(=O)[nH]2)n1` are 10 µM, 2 µM (≈ 0.533 µg/mL) and 30 µM (≈ 7.99 µg/mL).
In [4], `Cc1cc(CN(C)C)nn1-c1nc(C(F)(F)F)cc(=O)[nH]1` yielded an MIC of over 50 µM. The solubility in series [5] (aqueous, read-out: solubility) worked out at 200 µM (≈ 60.3 µg/mL).
`Cc1cc(NCCN(C)C)n(-c2nc(C(F)(F)F)cc(=O)[nH]2)n1` came in with an MIC in series [4] of 58 µM (≈ 19.2 µg/mL). The solubility in series [5] (aqueous, read-out: solubility) was found to be 200 µM (≈ 66.1 µg/mL).
In series [5] (buffer), `Cc1cc(N)n(-c2nc(-c3ccccc3)cc(=O)[nH]2)n1` registered a solubility of 180 µM (≈ 48.1 µg/mL). For the same compound, in [9], the IC50 was 9 µM.
Consider `Cc1cc(C)n(-c2nc(-c3ccccc3)c(C)c(=O)[nH]2)n1`, for which the Kinetic_solubility in series [1] is 120 µM. For the same compound, the Stabilty in [2] worked out at 54%; in series [6], 65%; in [7] it was 45%. The IC50 in series [3] turned out to be 25 µM. Inhibition of growth in series [4] (MIC) required 2 µM (≈ 0.561 µg/mL). Further, in [5] (buffer), the solubility was 120 µM (≈ 33.6 µg/mL).
As for `CC(=O)Nc1cc(C)nn1-c1nc(-c2ccccc2)cc(=O)[nH]1`, the MIC came out at 6 µM (≈ 1.86 µg/mL) in series [4] and 27 µM (≈ 8.35 µg/mL) in [11]. The result in series [10] was Active. The solubility in [5] (buffer) was determined as 150 µM (≈ 46.4 µg/mL). Further, the IC50 in series [9] was determined as 35 µM.
As to `CCc1cc(C)nn1-c1nc(C(F)(F)F)cc(=O)[nH]1`, the IC50 in series [3] is 108 µM. The lowest concentration to inhibit growth in [4] (MIC) was 12 µM (≈ 3.27 µg/mL). For the same compound, the solubility in series [5] (aqueous, read-out: solubility) worked out at 200 µM (≈ 54.4 µg/mL).
In the same order, the values of `Cc1cc(C)n(-c2cc(-c3ccccc3)cc(=O)n2C)n1` are over 50 µM, over 50 µM and 185 µM (≈ 51.7 µg/mL).
In the same order, the values of `Cc1cc(-c2ccccc2)n(-c2nc(C(F)(F)F)cc(=O)[nH]2)n1` are over 50 µM, 25 µM (≈ 8.01 µg/mL) and 200 µM (≈ 64.1 µg/mL).
On to `Cc1cc(C(=O)O)nn1-c1nc(-c2ccc(F)cc2)cc(=O)[nH]1`, for which, in series [4], the MIC is over 50 µM. Besides, the solubility in series [5] (buffer) is 155 µM (≈ 48.7 µg/mL).
With `Cc1cc(C)n(-c2nc(-c3ccncc3)cc(=O)[nH]2)n1`, the IC50 in series [3] is over 50 µM. The MIC in series [4] worked out at 9 µM (≈ 2.41 µg/mL). This compound also came in with a solubility in series [5] (buffer) of 180 µM (≈ 48.1 µg/mL).
`Cc1cc(C)n(-c2nc(-c3ccc(F)cc3)c(C(N)=O)c(=O)[nH]2)n1` gave an MIC in [4] of over 50 µM. In [5] (buffer), this compound gave a solubility of 110 µM (≈ 36 µg/mL).
As to `Cc1cc(C)n(-c2nc(C)c(-c3ccccc3)c(=O)[nH]2)n1`, the IC50 in series [3] amounted to 9 µM. The same compound displayed an MIC in series [4] of 9 µM (≈ 2.52 µg/mL). The compound further gave a solubility in series [5] (buffer) of 190 µM (≈ 53.3 µg/mL).
On to `Cc1cc(Nc2ccc(F)cc2F)n(-c2nc(C(F)(F)F)cc(=O)[nH]2)n1`, for which the half-inhibitory concentration (IC50) in series [3] turned out to be 8 µM. In [4], this compound registered an MIC of 0.3 µM (≈ 0.111 µg/mL). Further, in series [5] (aqueous, read-out: solubility), the solubility is under 5 µM.
With `Cc1cc(C)n(-c2nc3ccccc3c(=O)[nH]2)n1`, the IC50 in series [3] was 6 µM. Moreover, the MIC in series [4] was found to be 3 µM (≈ 0.721 µg/mL). This compound also came in with a solubility in series [5] (buffer) of 150 µM (≈ 36 µg/mL).
In turn, `Cc1cc(NCCO)n(-c2nc(C(F)(F)F)cc(=O)[nH]2)n1` displayed an MIC in series [4] of 37 µM (≈ 11.2 µg/mL). For the same compound, the solubility in [5] (aqueous, read-out: solubility) is 200 µM (≈ 60.6 µg/mL).
For `Cc1cc(C)n(-c2nc(-c3ccc(N4CCOCC4)cc3)cc(=O)[nH]2)n1`, the MIC in [4] was over 125 µM. The same compound displayed a solubility in series [5] (buffer) of 40 µM (≈ 14.1 µg/mL).
For the compound `O=c1cc(-c2ccccc2)nc(-n2cccn2)[nH]1`, the IC50 in series [3] is over 50 µM. In [4], the MIC came to 50 µM (≈ 11.9 µg/mL). In addition, the solubility in [5] (buffer) was found to be 190 µM (≈ 45.3 µg/mL).
For the compound `Cc1nn(-c2nc(C(F)(F)F)cc(=O)[nH]2)c(C)c1Br`, in [3], the IC50 was over 50 µM. The compound further returned an MIC in series [4] of 25 µM (≈ 8.43 µg/mL). Further, the solubility in series [5] (aqueous, read-out: solubility) was 200 µM (≈ 67.4 µg/mL).
Regarding `Cc1cc(C)n(-c2nc(-c3ccc(NS(C)(=O)=O)cc3)cc(=O)[nH]2)n1`, in series [3], the IC50 is over 50 µM. Also, the MIC in series [4] is over 125 µM. In addition, the solubility in [5] (buffer) was determined as 20 µM (≈ 7.19 µg/mL).
With `Nc1cc(C2CC2)nn1-c1nc(C(F)(F)F)cc(=O)[nH]1`, the IC50 in series [3] stood at 24 µM. The compound also displayed an MIC in [4] of 25 µM (≈ 7.13 µg/mL). Further, in [5] (buffer), the solubility was determined as 10 µM (≈ 2.85 µg/mL).
In the same order, the values of `Cc1cc(Nc2ccc(N3CCOCC3)cn2)n(-c2nc(C(F)(F)F)cc(=O)[nH]2)n1` are 1.3 µM, 2.3 µM (≈ 0.969 µg/mL) and 180 µM (≈ 75.8 µg/mL).

Usually IC50 stands for the midpoint of a concentration-inhibition curve. One may read the MIC as the lowest concentration found to suppress growth. What is called solubility is how much of the substance goes into solution per volume.
